Data published in patent publication US8927717B1, “Thiochromeno[2,3-c]quinolin-12-one derivatives, preparation method and application thereof” (National Defense Medical Center, priority 2014, dated 2015).

Columns and labels:
Type in all cases: cell-based
HT29 = conditions: HT29; 10^−5 molar
NCI-H23 = conditions: NCI-H23; 10^−5 molar
LOX IMVI = conditions: LOX IMVI; 10^−5 molar
SW-620 = conditions: SW-620; 10^−5 molar
786-0 = conditions: 786-0; 10^−5 molar
RXF 393 = conditions: RXF 393; 10^−5 molar
NCI-H226 = conditions: NCI-H226; 10^−5 molar
MDA-MB-486 = conditions: MDA-MB-486; 10^−5 molar
MCF7 = conditions: MCF7; 10^−5 molar
SF-295 = conditions: SF-295; 10^−5 molar
SK-MEL-5 = conditions: SK-MEL-5; 10^−5 molar
SK-OV-3 = conditions: SK-OV-3; 10^−5 molar
RPMI-8226 = conditions: RPMI-8226; 10^−5 molar
MOLT-4 = conditions: MOLT-4; 10^−5 molar
U251 = conditions: U251; 10^−5 molar
CCRF-CEM = conditions: CCRF-CEM; 10^−5 molar
UO-31 = conditions: UO-31; 10^−5 molar
HCT-15 = conditions: HCT-15; 10^−5 molar
NCI-H522 = conditions: NCI-H522; 10^−5 molar
HS 578T = conditions: HS 578T; 10^−5 molar
MDA-MB-231/ATCC = conditions: MDA-MB-231/ATCC; 10^−5 molar
SN12C = conditions: SN12C; 10^−5 molar
A549/ATCC = conditions: A549/ATCC; 10^−5 molar
KM12 = test: cells; conditions: KM12; 10^−5 molar
OVCAR-8 = conditions: OVCAR-8; 10^−5 molar
SNB-75 = conditions: SNB-75; 10^−5 molar
PC-3 = conditions: PC-3; 10^−5 molar
DU-145 = conditions: DU-145; 10^−5 molar
T-47D = conditions: T-47D; 10^−5 molar
60 cancer cell lines = test: NCI 60-cell screen, SRB, whole panel (mean, delta, range); conditions: 10^−5 molar; for Growth percent, Delta: delta over panel; for Growth percent, Mean: mean over panel; for Growth percent, Range: range over panel
K-562 = conditions: K-562; 10^−5 molar
NCI-H460 = conditions: NCI-H460; 10^−5 molar
HCT-116 = conditions: HCT-116; 10^−5 molar
COLO 205 = conditions: COLO 205; 10^−5 molar
HL-60(TB) = conditions: HL-60(TB); 10^−5 molar
SR = conditions: SR; 10^−5 molar
BT-549 = conditions: BT-549; 10^−5 molar
HOP-62 = conditions: HOP-62; 10^−5 molar
ACHN = conditions: ACHN; 10^−5 molar

In the case of `O=c1c2cc(Cl)ccc2sc2c(NCc3ccc4c(c3)OCO4)nc3ccccc3c12` [Compound N27, 6-((Benzo[d][1,3]dioxol-5-ylmethyl)amino)-10-chloro-12H-thiochromeno[2,3-c]quinolin-12-one], the Growth percent (HT29) is reported as 82.91%, the Growth percent (NCI-H23) is reported as 79.93% and the Growth percent (LOX IMVI) is reported as 78.69%. For the same compound, the Growth percent (SW-620) was 76.95%, the Growth percent (786-0) was 95.83% and the Growth percent (RXF 393) was 74.20%. For the same compound, the Growth percent (NCI-H226) was 53.50%, the Growth percent (MDA-MB-486) was 60.47% and the Growth percent (MCF7) was 43.53%. The Growth percent (SF-295) was 94.39%, the Growth percent (SK-MEL-5) was 79.86% and the Growth percent (SK-OV-3) was 82.87%. It also gave a Growth percent (RPMI-8226) of 96.35%, a Growth percent (MOLT-4) of 87.55% and a Growth percent (U251) of 81.03%. The Growth percent (CCRF-CEM) was 88.86%, the Growth percent (UO-31) was 80.98% and the Growth percent (HCT-15) was 77.41%. The Growth percent (NCI-H522) was 78.43%, the Growth percent (HS 578T) was 70.49% and the Growth percent (MDA-MB-231/ATCC) was 54.65%. For the same compound, the Growth percent (SN12C) was 85.53%, the Growth percent (A549/ATCC) was 104.74% and the Growth percent (KM12) was 87.96%. For the same compound, the Growth percent (OVCAR-8) was 79.45%, the Growth percent (SNB-75) was 57.14% and the Growth percent (PC-3) was 78.54%. The Growth percent (DU-145) was 72.44%, the Growth percent (T-47D) was 74.41% and the “Growth percent, Delta” value (60 cancer cell lines) was 36.65%. The “Growth percent, Mean” value (60 cancer cell lines) was 81.18%, the “Growth percent, Range” value (60 cancer cell lines) was 73.26% and the Growth percent (K-562) was 80.37%. It also gave a Growth percent (NCI-H460) of 76.71%, a Growth percent (HCT-116) of 69.98% and a Growth percent (COLO 205) of 87.63%. The Growth percent (HL-60(TB)) was 112.12%, the Growth percent (SR) was 79.57% and the Growth percent (BT-549) was 111.06%. For the same compound, the Growth percent (HOP-62) was 78.01% and the Growth percent (ACHN) was 58.48%.
For `O=c1c2cc(Cl)ccc2sc2c(NCCc3ccccc3)nc3ccccc3c12` [Compound N30, 10-Chloro-6-(phenethylamino)-12H-thiochromeno[2,3-c]quinolin-12-one], the Growth percent (HT29) was 109.15%, the Growth percent (NCI-H23) was 89.89% and the Growth percent (LOX IMVI) was 89.03%. The Growth percent (SW-620) was 93.45%, the Growth percent (786-0) was 108.00% and the Growth percent (RXF 393) was 96.74%. It also gave a Growth percent (NCI-H226) of 77.00%, a Growth percent (MDA-MB-486) of 63.11% and a Growth percent (MCF7) of 60.91%. For the same compound, the Growth percent (SF-295) was 95.46%, the Growth percent (SK-MEL-5) was 89.49% and the Growth percent (SK-OV-3) was 102.16%. For the same compound, the Growth percent (RPMI-8226) was 77.36%, the Growth percent (MOLT-4) was 87.33% and the Growth percent (U251) was 96.78%. For the same compound, the Growth percent (CCRF-CEM) was 114.29%, the Growth percent (UO-31) was 75.82% and the Growth percent (HCT-15) was 91.82%. For the same compound, the Growth percent (NCI-H522) was 93.93%, the Growth percent (HS 578T) was 87.62% and the Growth percent (MDA-MB-231/ATCC) was 79.55%. It also gave a Growth percent (SN12C) of 86.54%, a Growth percent (A549/ATCC) of 88.44% and a Growth percent (KM12) of 90.99%. For the same compound, the Growth percent (OVCAR-8) was 95.61%, the Growth percent (SNB-75) was 68.76% and the Growth percent (PC-3) was 87.25%. For the same compound, the Growth percent (DU-145) was 100.17%, the Growth percent (T-47D) was 71.96% and the “Growth percent, Delta” value (60 cancer cell lines) was 32.31%. The “Growth percent, Mean” value (60 cancer cell lines) was 93.22%, the “Growth percent, Range” value (60 cancer cell lines) was 61.70% and the Growth percent (K-562) was 82.82%. For the same compound, the Growth percent (NCI-H460) was 95.11%, the Growth percent (HCT-116) was 85.77% and the Growth percent (COLO 205) was 100.02%. The Growth percent (HL-60(TB)) was 105.68%, the Growth percent (SR) was 89.88% and the Growth percent (BT-549) was 106.85%. For the same compound, the Growth percent (HOP-62) was 103.19% and the Growth percent (ACHN) was 90.85%.
In the case of `COc1ccc(CCNc2nc3ccccc3c3c(=O)c4cc(Cl)ccc4sc23)cc1` [Compound N31, 10-Chloro-6-((4-methoxyphenethyl)amino)-12H-thiochromeno[2,3-c]quinolin-12-one], the Growth percent (HT29) is reported as 120.78%, the Growth percent (NCI-H23) is reported as 92.72% and the Growth percent (LOX IMVI) is reported as 87.78%. For the same compound, the Growth percent (SW-620) was 97.10%, the Growth percent (786-0) was 100.71% and the Growth percent (RXF 393) was 88.50%. It also gave a Growth percent (NCI-H226) of 72.39%, a Growth percent (MDA-MB-486) of 53.93% and a Growth percent (MCF7) of 59.13%. It also gave a Growth percent (SF-295) of 95.31%, a Growth percent (SK-MEL-5) of 85.38% and a Growth percent (SK-OV-3) of 96.11%. For the same compound, the Growth percent (RPMI-8226) was 99.98%, the Growth percent (MOLT-4) was 82.02% and the Growth percent (U251) was 98.72%. For the same compound, the Growth percent (CCRF-CEM) was 100.93%, the Growth percent (UO-31) was 72.12% and the Growth percent (HCT-15) was 100.67%. The Growth percent (NCI-H522) was 93.69%, the Growth percent (HS 578T) was 87.49% and the Growth percent (MDA-MB-231/ATCC) was 82.31%. It also gave a Growth percent (SN12C) of 94.23%, a Growth percent (A549/ATCC) of 93.49% and a Growth percent (KM12) of 109.46%. It also gave a Growth percent (OVCAR-8) of 97.83%, a Growth percent (SNB-75) of 74.50% and a Growth percent (PC-3) of 84.95%. For the same compound, the Growth percent (DU-145) was 107.03%, the Growth percent (T-47D) was 69.90% and the “Growth percent, Delta” value (60 cancer cell lines) was 39.45%. The “Growth percent, Mean” value (60 cancer cell lines) was 93.38%, the “Growth percent, Range” value (60 cancer cell lines) was 78.64% and the Growth percent (K-562) was 91.76%. It also gave a Growth percent (NCI-H460) of 98.14%, a Growth percent (HCT-116) of 98.46% and a Growth percent (COLO 205) of 105.41%. For the same compound, the Growth percent (HL-60(TB)) was 94.27%, the Growth percent (SR) was 94.13% and the Growth percent (BT-549) was 105.24%. It also gave a Growth percent (HOP-62) of 90.07% and a Growth percent (ACHN) of 91.19%.
